Experimental data from PubChem BioAssay (NCI).
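48-hour exposure; five concentrations; linearly interpolated endpoints. Definition used: TGI = concentration required for complete inhibition of growth.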

Key:
Test in all cases: NCI tumour cell line growth inhibition, 48 h
786-0 renal = tested on: 786-0 renal
A498 renal = tested on: A498 renal
A549 NSCLC = tested on: A549 NSCLC
ACHN renal = tested on: ACHN renal
BT-549 breast = tested on: BT-549 breast
CAKI-1 renal = tested on: CAKI-1 renal
CCRF-CEM leukemia = tested on: CCRF-CEM leukemia
COLO 205 colon = tested on: COLO 205 colon
DU-145 prostate = tested on: DU-145 prostate
EKVX NSCLC = tested on: EKVX NSCLC
HCT-116 colon = tested on: HCT-116 colon
HCT-15 colon = tested on: HCT-15 colon
HL-60(TB) leukemia = tested on: HL-60(TB) leukemia
HOP-62 NSCLC = tested on: HOP-62 NSCLC
HOP-92 NSCLC = tested on: HOP-92 NSCLC
HS 578T breast = tested on: HS 578T breast
HT29 colon = tested on: HT29 colon
IGROV1 ovarian = tested on: IGROV1 ovarian
K-562 leukemia = tested on: K-562 leukemia
KM12 colon = tested on: KM12 colon
LOX IMVI melanoma = tested on: LOX IMVI melanoma
M14 melanoma = tested on: M14 melanoma
MALME-3M melanoma = tested on: MALME-3M melanoma
MCF7 breast = tested on: MCF7 breast
MDA-MB-231 breast = tested on: MDA-MB-231 breast
MDA-MB-435 = tested on: MDA-MB-435
MDA-N = tested on: MDA-N
MOLT-4 leukemia = tested on: MOLT-4 leukemia
NCI-H226 lung = tested on: NCI-H226 lung
NCI-H23 lung = tested on: NCI-H23 lung
NCI-H460 lung = tested on: NCI-H460 lung
NCI-H522 lung = tested on: NCI-H522 lung
NCI/ADR-RES ovarian = tested on: NCI/ADR-RES ovarian
OVCAR-3 ovarian = tested on: OVCAR-3 ovarian
OVCAR-4 ovarian = tested on: OVCAR-4 ovarian
OVCAR-5 ovarian = tested on: OVCAR-5 ovarian
OVCAR-8 ovarian = tested on: OVCAR-8 ovarian
PC-3 prostate = tested on: PC-3 prostate
RPMI-8226 leukemia = tested on: RPMI-8226 leukemia
RXF 393 renal = tested on: RXF 393 renal
SF-268 CNS = tested on: SF-268 CNS
SF-295 CNS = tested on: SF-295 CNS
SF-539 CNS = tested on: SF-539 CNS
SK-MEL-2 melanoma = tested on: SK-MEL-2 melanoma
SK-MEL-28 melanoma = tested on: SK-MEL-28 melanoma
SK-MEL-5 melanoma = tested on: SK-MEL-5 melanoma
SK-OV-3 ovarian = tested on: SK-OV-3 ovarian
SN12C renal = tested on: SN12C renal
SNB-19 CNS = tested on: SNB-19 CNS
SNB-75 CNS = tested on: SNB-75 CNS
SR leukemia = tested on: SR leukemia
SW-620 colon = tested on: SW-620 colon
T-47D breast = tested on: T-47D breast
TK-10 renal = tested on: TK-10 renal
U251 CNS = tested on: U251 CNS
UACC-257 melanoma = tested on: UACC-257 melanoma
UACC-62 melanoma = tested on: UACC-62 melanoma
HCC-2998 colon = tested on: HCC-2998 colon
UO-31 renal = tested on: UO-31 renal

S=P(C1CCCCC1)(C1CCCCC1)C(c1cccnc1)N1CCCC1 (centres undefined)
TGI (786-0 renal): 31.5 µM | TGI (A498 renal): 67.9 µM | TGI (A549 NSCLC): 35.4 µM | TGI (ACHN renal): 34.7 µM | TGI (BT-549 breast): 35.6 µM | TGI (CAKI-1 renal): 31.9 µM | TGI (CCRF-CEM leukemia): 36.3 µM | TGI (COLO 205 colon): 37.3 µM | TGI (DU-145 prostate): 29.8 µM | TGI (EKVX NSCLC): 41.7 µM | TGI (HCT-116 colon): 34.2 µM | TGI (HCT-15 colon): > 100 µM | TGI (HL-60(TB) leukemia): 37 µM | TGI (HOP-62 NSCLC): 36.2 µM | TGI (HOP-92 NSCLC): 42.7 µM | TGI (HS 578T breast): 84.3 µM | TGI (HT29 colon): > 100 µM | TGI (IGROV1 ovarian): 33.8 µM | TGI (K-562 leukemia): 39.2 µM | TGI (KM12 colon): 33.4 µM | TGI (LOX IMVI melanoma): 23.6 µM | TGI (M14 melanoma): 34.6 µM | TGI (MALME-3M melanoma): 39.9 µM | TGI (MCF7 breast): > 100 µM | TGI (MDA-MB-231 breast): 39.1 µM | TGI (MDA-MB-435): 33.6 µM | TGI (MDA-N): 39.3 µM | TGI (MOLT-4 leukemia): 42.7 µM | TGI (NCI-H226 lung): 38 µM | TGI (NCI-H23 lung): 34.6 µM | TGI (NCI-H460 lung): 50.7 µM | TGI (NCI-H522 lung): 41.2 µM | TGI (NCI/ADR-RES ovarian): 38.6 µM | TGI (OVCAR-3 ovarian): > 100 µM | TGI (OVCAR-4 ovarian): 55.7 µM | TGI (OVCAR-5 ovarian): > 100 µM | TGI (OVCAR-8 ovarian): 51.7 µM | TGI (PC-3 prostate): 36.9 µM | TGI (RPMI-8226 leukemia): 38.3 µM | TGI (RXF 393 renal): 33.4 µM | TGI (SF-268 CNS): 38.4 µM | TGI (SF-295 CNS): 49.2 µM | TGI (SF-539 CNS): 35.2 µM | TGI (SK-MEL-2 melanoma): 48.7 µM | TGI (SK-MEL-28 melanoma): > 100 µM | TGI (SK-MEL-5 melanoma): 31.9 µM | TGI (SK-OV-3 ovarian): > 100 µM | TGI (SN12C renal): 33.1 µM | TGI (SNB-19 CNS): > 100 µM | TGI (SNB-75 CNS): 35.4 µM | TGI (SR leukemia): 44.7 µM | TGI (SW-620 colon): > 100 µM | TGI (T-47D breast): > 100 µM | TGI (TK-10 renal): 34.3 µM | TGI (U251 CNS): 46.6 µM | TGI (UACC-257 melanoma): > 100 µM | TGI (UACC-62 melanoma): 52.5 µM

CC1(C)[C@H]2CC[C@](C)(C2)[C@]1(S)Cc1ccccn1
TGI (786-0 renal): > 100 µM | TGI (A498 renal): > 100 µM | TGI (A549 NSCLC): > 100 µM | TGI (ACHN renal): > 100 µM | TGI (BT-549 breast): > 100 µM | TGI (CAKI-1 renal): > 100 µM | TGI (CCRF-CEM leukemia): 24.8 µM | TGI (COLO 205 colon): > 100 µM | TGI (DU-145 prostate): > 100 µM | TGI (EKVX NSCLC): > 100 µM | TGI (HCC-2998 colon): 41.5 µM | TGI (HCT-116 colon): > 100 µM | TGI (HCT-15 colon): > 100 µM | TGI (HL-60(TB) leukemia): 50.9 µM | TGI (HOP-62 NSCLC): > 100 µM | TGI (HOP-92 NSCLC): > 100 µM | TGI (HS 578T breast): > 100 µM | TGI (HT29 colon): > 100 µM | TGI (IGROV1 ovarian): > 100 µM | TGI (K-562 leukemia): > 100 µM | TGI (KM12 colon): > 100 µM | TGI (LOX IMVI melanoma): 36.8 µM | TGI (M14 melanoma): > 100 µM | TGI (MALME-3M melanoma): > 100 µM | TGI (MCF7 breast): > 100 µM | TGI (MDA-MB-231 breast): > 100 µM | TGI (MDA-MB-435): 91.9 µM | TGI (MDA-N): > 100 µM | TGI (MOLT-4 leukemia): 54 µM | TGI (NCI-H23 lung): > 100 µM | TGI (NCI-H460 lung): > 100 µM | TGI (NCI-H522 lung): > 100 µM | TGI (NCI/ADR-RES ovarian): > 100 µM | TGI (OVCAR-3 ovarian): 73 µM | TGI (OVCAR-5 ovarian): > 100 µM | TGI (OVCAR-8 ovarian): 42.6 µM | TGI (PC-3 prostate): 67.6 µM | TGI (RPMI-8226 leukemia): 93.5 µM | TGI (RXF 393 renal): 80.2 µM | TGI (SF-268 CNS): > 100 µM | TGI (SF-295 CNS): 98.8 µM | TGI (SF-539 CNS): > 100 µM | TGI (SK-MEL-2 melanoma): 46.1 µM | TGI (SK-MEL-28 melanoma): > 100 µM | TGI (SK-MEL-5 melanoma): 64.3 µM | TGI (SK-OV-3 ovarian): 93.6 µM | TGI (SN12C renal): > 100 µM | TGI (SNB-19 CNS): > 100 µM | TGI (SNB-75 CNS): 77.1 µM | TGI (SR leukemia): 43.2 µM | TGI (SW-620 colon): > 100 µM | TGI (T-47D breast): 73.1 µM | TGI (TK-10 renal): > 100 µM | TGI (U251 CNS): 36.6 µM | TGI (UACC-257 melanoma): 72.7 µM | TGI (UACC-62 melanoma): > 100 µM | TGI (UO-31 renal): > 100 µM
